≈ marks a conversion by molar mass, not a printed value. Calls of active or inactive are those of the source. The calls are words filed in the database; no cut-off is given here.
Columns and labels:
Assay type in all cases: functional
[1] = system: Staphylococcus aureus; assay: Antibacterial activity against methicillin-sensitive Staphylococcus aureus after 18 to 20 hrs by CLSI-protocol based broth microdilution method
[2] = system: Staphylococcus aureus; assay: Antibacterial activity against methicillin-resistant Staphylococcus aureus after 18 to 20 hrs by CLSI-protocol based broth microdilution method
[3] = system: Staphylococcus epidermidis; assay: Antibacterial activity against methicillin-sensitive Staphylococcus epidermidis after 18 to 20 hrs by CLSI-protocol based broth microdilution method
[4] = system: Staphylococcus epidermidis; assay: Antibacterial activity against methicillin-resistant Staphylococcus epidermidis after 18 to 20 hrs by CLSI-protocol based broth microdilution method
[5] = system: Streptococcus pneumoniae; assay: Antibacterial activity against penicillin-resistant Streptococcus pneumoniae after 18 to 20 hrs by CLSI-protocol based broth microdilution method
[6] = system: Streptococcus pyogenes; assay: Antibacterial activity against Streptococcus pyogenes after 18 to 20 hrs by CLSI-protocol based broth microdilution method
[7] = Staphylococcus aureus, read-out: MIC
[8] = Streptococcus pyogenes, read-out: MIC

SMILES	MIC [1]	MIC [2]	MIC [3]	MIC [4]	MIC [5]	MIC [6]	MIC [1, 7]	MIC [6, 8]
C[C@@H]1CN2c3c(cc4c(N5CCOC5=O)ncnc4c3F)CC3(C(=O)NC(=O)NC3=O)[C@H]2[C@H](C)O1 (relative stereo)	inactive	inactive	inactive	inactive	inactive	inactive		
C[C@@H]1CN2c3c(cc4c(N5CC6(COC6)OC5=O)noc4c3F)CC3(C(=O)NC(=O)NC3=O)[C@H]2[C@H](C)O1		0.03 to 1 µg/mL (≈ 0.0582 to 1.94 µM)	0.03 to 0.125 µg/mL (≈ 0.0582 to 0.243 µM)	0.03 to 0.25 µg/mL (≈ 0.0582 to 0.485 µM)	0.125 to 0.5 µg/mL (≈ 0.243 to 0.97 µM)		0.125 to 0.25 µg/mL (≈ 0.243 to 0.485 µM)	0.125 to 0.25 µg/mL (≈ 0.243 to 0.485 µM)
CC[C@@H]1CSC(=O)N1c1noc2c(F)c3c(cc12)CC1(C(=O)NC(=O)NC1=O)[C@H]1[C@H](C)O[C@H](C)CN31		0.5 to 2 µg/mL (≈ 0.966 to 3.86 µM)	1 µg/mL (≈ 1.93 µM)	0.25 to 2 µg/mL (≈ 0.483 to 3.86 µM)	2 µg/mL (≈ 3.86 µM)		0.5 to 1 µg/mL (≈ 0.966 to 1.93 µM)	4 µg/mL (≈ 7.73 µM)
C[C@@H]1CN2c3c(cc4c(N5C(=O)S[C@@H]6CCC[C@@H]65)noc4c3F)CC3(C(=O)NC(=O)NC3=O)[C@H]2[C@H](C)O1			< 0.03 µg/mL		< 0.03 µg/mL			< 0.03 µg/mL
C[C@@H]1CN2c3c(cc4c(N5C(=O)SCC56CC6)noc4c3F)CC3(C(=O)NC(=O)NC3=O)[C@H]2[C@H](C)O1		0.5 to 8 µg/mL (≈ 0.97 to 15.5 µM)	1 to 4 µg/mL (≈ 1.94 to 7.76 µM)	2 to 4 µg/mL (≈ 3.88 to 7.76 µM)	1 to 2 µg/mL (≈ 1.94 to 3.88 µM)		2 to 4 µg/mL (≈ 3.88 to 7.76 µM)	4 µg/mL (≈ 7.76 µM)
C[C@@H]1CN2c3c(cc4c(N5C(=O)OC[C@@H]5C)noc4c3F)CC3(C(=O)NC(=S)NC3=O)[C@H]2[C@H](C)O1	inactive	inactive	inactive	inactive	inactive	inactive		
C[C@@H]1CN2c3c(cc4c(N5C(=O)OCC56CC6)noc4c3F)CC3(C(=O)NC(=O)NC3=O)[C@H]2[C@H](C)O1 (racemic)		1 to 4 µg/mL (≈ 2 to 8.01 µM)	1 to 2 µg/mL (≈ 2 to 4 µM)	0.5 to 2 µg/mL (≈ 1 to 4 µM)	2 µg/mL (≈ 4 µM)		1 µg/mL (≈ 2 µM)	1 to 2 µg/mL (≈ 2 to 4 µM)
C[C@@H]1CN2c3c(cc4c(N5C(=O)S[C@@H]6CCCC[C@@H]65)noc4c3F)CC3(C(=O)NC(=O)NC3=O)[C@H]2[C@H](C)O1		0.5 to 2 µg/mL (≈ 0.92 to 3.68 µM)	0.25 to 0.5 µg/mL (≈ 0.46 to 0.92 µM)	0.125 to 0.5 µg/mL (≈ 0.23 to 0.92 µM)	< 0.03 µg/mL		0.5 to 1 µg/mL (≈ 0.92 to 1.84 µM)	
C[C@@H]1CN2c3c(cc4c(N5CCOCC5)ncnc4c3F)CC3(C(=O)NC(=O)NC3=O)[C@H]2[C@H](C)O1 (racemic)	inactive	inactive	inactive	inactive	inactive	inactive		
CC[C@@H]1CN(c2noc3c(F)c4c(cc23)CC2(C(=O)NC(=O)NC2=O)[C@H]2[C@H](C)O[C@H](C)CN42)C(=O)S1			< 0.03 µg/mL	< 0.03 µg/mL				< 0.03 µg/mL
C[C@@H]1CN2c3c(cc4c(N5C[C@H](CO)SC5=O)noc4c3F)CC3(C(=O)NC(=O)NC3=O)[C@H]2[C@H](C)O1		0.5 to 4 µg/mL (≈ 0.962 to 7.7 µM)	0.06 to 0.25 µg/mL (≈ 0.115 to 0.481 µM)	0.03 to 0.125 µg/mL (≈ 0.0577 to 0.241 µM)	0.125 to 0.25 µg/mL (≈ 0.241 to 0.481 µM)		1 µg/mL (≈ 1.92 µM)	0.125 to 0.5 µg/mL (≈ 0.241 to 0.962 µM)
C[C@@H]1CN2c3c(cc4c(-n5cncn5)ncnc4c3F)CC3(C(=O)NC(=O)NC3=O)[C@H]2[C@H](C)O1 (racemic)	inactive	inactive	inactive	inactive	inactive	inactive		
C[C@@H]1CN2c3c(cc4c(N5CC6(CCCC6)OC5=O)noc4c3F)CC3(C(=O)NC(=O)NC3=O)[C@H]2[C@H](C)O1		0.06 to 1 µg/mL (≈ 0.114 to 1.9 µM)	0.06 to 0.25 µg/mL (≈ 0.114 to 0.474 µM)	0.03 to 0.25 µg/mL (≈ 0.0569 to 0.474 µM)	0.25 to 1 µg/mL (≈ 0.474 to 1.9 µM)		0.125 to 0.25 µg/mL (≈ 0.237 to 0.474 µM)	0.25 to 0.5 µg/mL (≈ 0.474 to 0.948 µM)
C[C@@H]1CN2c3c(cc4c(N5C[C@H](c6ccccc6)SC5=O)noc4c3F)CC3(C(=O)NC(=O)NC3=O)[C@H]2[C@H](C)O1		0.125 to 2 µg/mL (≈ 0.221 to 3.54 µM)	0.5 to 2 µg/mL (≈ 0.884 to 3.54 µM)	0.125 to 0.5 µg/mL (≈ 0.221 to 0.884 µM)	1 to 2 µg/mL (≈ 1.77 to 3.54 µM)		0.5 to 1 µg/mL (≈ 0.884 to 1.77 µM)	4 µg/mL (≈ 7.07 µM)
C[C@@H]1CN2c3c(cc4c(N5C(=O)SC[C@H]5C)noc4c3F)CC3(C(=O)NC(=O)NC3=O)[C@H]2[C@H](C)O1		0.03 to 0.5 µg/mL (≈ 0.0596 to 0.993 µM)	0.03 to 0.125 µg/mL (≈ 0.0596 to 0.248 µM)	0.03 to 0.125 µg/mL (≈ 0.0596 to 0.248 µM)	0.25 to 1 µg/mL (≈ 0.497 to 1.99 µM)		0.25 to 0.5 µg/mL (≈ 0.497 to 0.993 µM)	0.125 to 0.25 µg/mL (≈ 0.248 to 0.497 µM)
C[C@@H]1CN2c3c(cc4c(N5C[C@H](CF)SC5=O)noc4c3F)CC3(C(=O)NC(=O)NC3=O)[C@H]2[C@H](C)O1			< 0.03 µg/mL		0.06 to 0.25 µg/mL (≈ 0.115 to 0.479 µM)		0.06 to 0.125 µg/mL (≈ 0.115 to 0.24 µM)	
C[C@@H]1CN2c3c(cc4c(N5C[C@H](C)SC5=O)noc4c3C#N)CC3(C(=O)NC(=O)NC3=O)[C@H]2[C@H](C)O1			0.06 to 0.125 µg/mL (≈ 0.118 to 0.245 µM)	0.06 to 0.5 µg/mL (≈ 0.118 to 0.979 µM)	0.125 to 0.25 µg/mL (≈ 0.245 to 0.49 µM)		0.06 to 1 µg/mL (≈ 0.118 to 1.96 µM)	0.125 to 0.5 µg/mL (≈ 0.245 to 0.979 µM)
C[C@@H]1CN2c3c(cc4c(N5CCCOC5=O)noc4c3F)CC3(C(=O)NC(=O)NC3=O)[C@H]2[C@H](C)O1 (racemic)		1 to 64 µg/mL (≈ 2.05 to 131 µM)	4 µg/mL (≈ 8.21 µM)	1 to 8 µg/mL (≈ 2.05 to 16.4 µM)	4 to 8 µg/mL (≈ 8.21 to 16.4 µM)		4 to 8 µg/mL (≈ 8.21 to 16.4 µM)	4 µg/mL (≈ 8.21 µM)
C[C@@H]1CN2c3c(cc4c(N5CC6(CC6)OC5=O)noc4c3C#N)CC3(C(=O)NC(=O)NC3=O)[C@H]2[C@H](C)O1		0.03 to 8 µg/mL (≈ 0.0592 to 15.8 µM)	0.25 to 2 µg/mL (≈ 0.494 to 3.95 µM)	0.5 to 2 µg/mL (≈ 0.987 to 3.95 µM)	1 to 2 µg/mL (≈ 1.97 to 3.95 µM)		1 to 4 µg/mL (≈ 1.97 to 7.9 µM)	4 µg/mL (≈ 7.9 µM)
C[C@@H]1CN2c3c(cc4c(N5C(=O)SC[C@@H]5Cc5ccccc5)noc4c3F)CC3(C(=O)NC(=O)NC3=O)[C@H]2[C@H](C)O1		8 to 16 µg/mL (≈ 13.8 to 27.6 µM)	1 to 4 µg/mL (≈ 1.73 to 6.9 µM)	1 to 4 µg/mL (≈ 1.73 to 6.9 µM)	4 to 8 µg/mL (≈ 6.9 to 13.8 µM)		2 to 8 µg/mL (≈ 3.45 to 13.8 µM)	4 to 8 µg/mL (≈ 6.9 to 13.8 µM)
C[C@@H]1CN2c3c(cc4c(N5CC6(CC6)OC5=O)noc4c3F)CC3(C(=O)NC(=O)NC3=O)[C@H]2[C@H](C)O1 (racemic)	<0.03 µg/mL	0.03 to 0.125 µg/mL (≈ 0.0601 to 0.25 µM)	≤ 0.03 µg/mL	≤ 0.03 µg/mL	≤ 0.03 µg/mL			≤ 0.03 µg/mL
C[C@@H]1CN2c3c(cc4c(N5C[C@H](COC(F)(F)F)SC5=O)noc4c3F)CC3(C(=O)NC(=O)NC3=O)[C@H]2[C@H](C)O1					0.125 to 0.5 µg/mL (≈ 0.213 to 0.851 µM)		0.06 to 1 µg/mL (≈ 0.102 to 1.7 µM)	0.125 to 0.25 µg/mL (≈ 0.213 to 0.426 µM)
C[C@@H]1CN2c3c(cc4c(N5C(=O)S[C@H]6CCC[C@H]65)noc4c3F)CC3(C(=O)NC(=O)NC3=O)[C@H]2[C@H](C)O1		0.25 to 1 µg/mL (≈ 0.472 to 1.89 µM)	0.5 µg/mL (≈ 0.944 µM)	0.5 µg/mL (≈ 0.944 µM)	0.25 to 0.5 µg/mL (≈ 0.472 to 0.944 µM)		0.25 to 0.5 µg/mL (≈ 0.472 to 0.944 µM)	0.125 µg/mL (≈ 0.236 µM)
C[C@@H]1CN2c3c(cc4c(N5C[C@H](CS(C)(=O)=O)SC5=O)noc4c3F)CC3(C(=O)NC(=O)NC3=O)[C@H]2[C@H](C)O1		1 to 8 µg/mL (≈ 1.72 to 13.8 µM)	0.25 to 1 µg/mL (≈ 0.43 to 1.72 µM)	0.25 to 1 µg/mL (≈ 0.43 to 1.72 µM)	0.5 to 4 µg/mL (≈ 0.86 to 6.88 µM)		2 to 4 µg/mL (≈ 3.44 to 6.88 µM)	0.5 to 1 µg/mL (≈ 0.86 to 1.72 µM)
C[C@@H]1CN2c3c(cc4c(N5C[C@H](CN=[N+]=[N-])SC5=O)noc4c3F)CC3(C(=O)NC(=O)NC3=O)[C@H]2[C@H](C)O1		0.25 to 0.5 µg/mL (≈ 0.459 to 0.918 µM)	0.03 to 0.25 µg/mL (≈ 0.0551 to 0.459 µM)	0.03 to 0.125 µg/mL (≈ 0.0551 to 0.23 µM)	0.125 µg/mL (≈ 0.23 µM)		0.06 to 0.25 µg/mL (≈ 0.11 to 0.459 µM)	0.125 to 1 µg/mL (≈ 0.23 to 1.84 µM)
C[C@@H]1CN2c3c(cc4c(N5C(=O)OC[C@@H]5C)noc4c3F)CC3(C(=O)N(C)C(=O)N(C)C3=O)[C@H]2[C@H](C)O1	inactive	inactive	inactive	inactive	inactive	inactive		
C[C@@H]1CN2c3c(cc4c(N5CCOCC5=O)ncnc4c3F)CC3(C(=O)NC(=O)NC3=O)[C@H]2[C@H](C)O1 (racemic)	inactive	inactive	inactive	inactive	inactive	inactive		
C[C@H]1COc2c(N3CCN(C)CC3)c(F)cc3c(=O)c(C(=O)O)cn1c23.C[C@H]1COc2c(N3CCN(C)CC3)c(F)cc3c(=O)c(C(=O)O)cn1c23.O [LEVOFLOXACIN]		16 to 64 µg/mL	0.5 to 4 µg/mL	4 to 64 µg/mL			4 to 64 µg/mL	0.5 to 1 µg/mL
